Measurements as given in patent publication US9765358B2 (priority 2015, dated 2017).

What was measured:
Clostridium beijerinckii = assay type: cell-based
Lactobacillus plantarum = assay type: cell-based

Row | Molecule | antibiotic susceptibility (disc, zone of clearance) (Clostridium beijerinckii) | antibiotic susceptibility (disc, zone of clearance) (Lactobacillus plantarum)
1 | amoxicillin/clavulinic acid | susceptible | resistant
2 | CC1(C)S[C@@H]2[C@H](NC(=O)C(C(=O)O)c3ccccc3)C(=O)N2[C@H]1C(=O)O (stereo partly drawn) [carbenicillin] | susceptible | resistant
3 | CC[C@H]1OC(=O)[C@H](C)[C@@H](O[C@H]2C[C@@](C)(OC)[C@@H](O)[C@H](C)O2)[C@H](C)[C@@H](O[C@@H]2O[C@H](C)C[C@H](N(C)C)[C@H]2O)[C@](C)(O)C[C@@H](C)CN(C)[C@H](C)[C@@H](O)[C@]1(C)O [azithromycin] | susceptible | susceptible
4 | CN[C@H](CC(C)C)C(=O)N[C@H]1C(=O)N[C@@H](CC(N)=O)C(=O)N[C@H]2C(=O)N[C@H]3C(=O)N[C@H](C(=O)N[C@H](C(=O)O)c4cc(O)cc(O)c4-c4cc3ccc4O)[C@H](O)c3ccc(c(Cl)c3)Oc3cc2cc(c3O[C@@H]2O[C@H](CO)[C@@H](O)[C@H](O)[C@H]2O[C@H]2C[C@](C)(N)[C@H](O)[C@H](C)O2)Oc2ccc(cc2Cl)[C@H]1O [vancomycin] | susceptible | –
5 | Cc1ncc([N+](=O)[O-])n1CCO [metronidazole] | susceptible | resistance
